Assay results published in US20170050957A1, “4-AMINO-6-(HETEROCYCLIC)PICOLINATES AND 6-AMINO-2-(HETEROCYCLIC)PYRIMIDINE-4-CARBOXYLATES AND THEIR USE AS HERBICIDES” (Dow AgroSciences LLC, priority 2013, published 2017).
Read-outs that look alike come from different tables or passages of the source.

Columns and labels:
[1] = test system: Key Grass and Sedge Weeds as well as Grass Crops; assay: Post-emergent Test II herbicidal activity (Table 16); format: in vivo; details: post-emergence, 336 h, 14 d; for pest or weed control at 35 g/ha: 35 g ai/ha; for pest or weed control at 70 g/ha: 70 g ai/ha; for pest or weed control at 140 g/ha: 140 g ai/ha
Procedure, shortened: (§1)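 Herbicidal effect scored as percent visual injury, 14 d after post-emergent application. Spray solutions contained acetone, DMSO, isopropyl alcohol, crop oil concentrate and surfactant, applied at 187 L/ha to young plants (1-2 true leaves).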

[2] = test system: Key Broadleaf Weed and Crop Species; assay: Post-emergent Test II herbicidal activity (Table 15); format: in vivo; details: post-emergence, 336 h, 14 d; for pest or weed control at 35 g/ha: 35 g ai/ha; for pest or weed control at 70 g/ha: 70 g ai/ha; for pest or weed control at 140 g/ha: 140 g ai/ha
Procedure, shortened: as §1

[3] = Cyperus esculentus, yellow nutsedge (Cyperus esculentus), read-out: Visual Growth Reduction (%) 14 Days After Application, CYPES
[4] = Echinochloa crus-galli, barnyardgrass (Echinochloa crus-galli), read-out: Visual Growth Reduction (%) 14 Days After Application, ECHCG
[5] = Oryza sativa, rice (Oryza sativa), read-out: Visual Growth Reduction (%) 14 Days After Application, ORYSA
[6] = Setaria faberi, giant foxtail (Setaria faberi), read-out: Visual Growth Reduction (%) 14 Days After Application, SETFA
[7] = Triticum aestivum, wheat, spring (Triticum aestivum), read-out: Visual Growth Reduction (%) 14 Days After Application, TRZAS
[8] = Zea mays, maize, corn (Zea mays), read-out: Visual Growth Reduction (%) 14 Days After Application, ZEAMX
[9] = Abutilon theophrasti, velvetleaf (Abutilon theophrasti), read-out: Visual Growth Reduction (%) 14 Days After Application, ABUTH
[10] = Amaranthus retroflexus, redroot pigweed (Amaranthus retroflexus), read-out: Visual Growth Reduction (%) 14 Days After Application, AMARE
[11] = Brassica napus, oilseed rape, canola (Brassica napus), read-out: Visual Growth Reduction (%) 14 Days After Application, BRSNN
[12] = Chenopodium album, lambsquarters (Chenopodium album), read-out: Visual Growth Reduction (%) 14 Days After Application, CHEAL
[13] = Euphorbia heterophylla, wild poinsettia (Euphorbia heterophylla), read-out: Visual Growth Reduction (%) 14 Days After Application, EPHHL
[14] = Helianthus annuus, sunflower (Helianthus annuus), read-out: Visual Growth Reduction (%) 14 Days After Application, HELAN

| SMILES | pest or weed control at 35 g/ha [1, 3] [%] | pest or weed control at 70 g/ha [1, 3] [%] | pest or weed control at 140 g/ha [1, 3] [%] | pest or weed control at 35 g/ha [1, 5] [%] | pest or weed control at 70 g/ha [1, 5] [%] | pest or weed control at 140 g/ha [1, 5] [%] | pest or weed control at 35 g/ha [1, 6] [%] | pest or weed control at 70 g/ha [1, 6] [%] | pest or weed control at 140 g/ha [1, 6] [%] | pest or weed control at 35 g/ha [1, 7] [%] | pest or weed control at 70 g/ha [1, 7] [%] | pest or weed control at 140 g/ha [1, 7] [%] | pest or weed control at 35 g/ha [1, 8] [%] | pest or weed control at 70 g/ha [1, 8] [%] | pest or weed control at 140 g/ha [1, 8] [%] | pest or weed control at 35 g/ha [2, 9] [%] | pest or weed control at 70 g/ha [2, 9] [%] | pest or weed control at 140 g/ha [2, 9] [%] | pest or weed control at 35 g/ha [2, 10] [%] | pest or weed control at 70 g/ha [2, 10] [%] | other results |
| --- | --- | --- | --- | --- | --- | --- | --- | --- | --- | --- | --- | --- | --- | --- | --- | --- | --- | --- | --- | --- | --- |
| Nc1c(F)c(-c2cc3[nH]ccc3cc2F)nc(C(=O)O)c1Cl [Compound 1.14] | 0 to 29 | 0 to 29 | 0 to 29 | 0 to 29 | 0 to 29 | 0 to 29 | 0 to 29 | 0 to 29 | 0 to 29 | 0 to 29 | 0 to 29 | 0 to 29 | 0 to 29 | 0 to 29 | 0 to 29 | 0 to 29 | 0 to 29 | 0 to 29 | 75 to 84 | 85 to 94 | pest or weed control at 35 g/ha [1, 4]: 0 to 29%; pest or weed control at 70 g/ha [1, 4]: 0 to 29%; pest or weed control at 140 g/ha [1, 4]: 0 to 29%; pest or weed control at 140 g/ha [2, 10]: 85 to 94%; pest or weed control at 35 g/ha [2, 11]: 45 to 59%; pest or weed control at 70 g/ha [2, 11]: 60 to 74%; pest or weed control at 140 g/ha [2, 11]: 75 to 84%; pest or weed control at 35 g/ha [2, 12]: 60 to 74%; pest or weed control at 70 g/ha [2, 12]: 60 to 74%; pest or weed control at 140 g/ha [2, 12]: 75 to 84%; pest or weed control at 35 g/ha [2, 13]: 0 to 29%; pest or weed control at 70 g/ha [2, 13]: 0 to 29%; pest or weed control at 140 g/ha [2, 13]: 60 to 74%; pest or weed control at 35 g/ha [2, 14]: 60 to 74%; pest or weed control at 70 g/ha [2, 14]: 75 to 84%; pest or weed control at 140 g/ha [2, 14]: 75 to 84% |
| COC(=O)c1nc(-c2ccc3occc3c2)nc(N)c1OC [Compound 2.06] | 0 to 29 | 0 to 29 | 0 to 29 | 0 to 29 | 0 to 29 | 0 to 29 | 0 to 29 | 0 to 29 | 0 to 29 | 0 to 29 | 0 to 29 | 0 to 29 | 0 to 29 | 0 to 29 | 0 to 29 | 0 to 29 | 0 to 29 | 75 to 84 | 75 to 84 | 95 to 100 | pest or weed control at 35 g/ha [1, 4]: 0 to 29%; pest or weed control at 70 g/ha [1, 4]: 45 to 59%; pest or weed control at 140 g/ha [1, 4]: 95 to 100%; pest or weed control at 140 g/ha [2, 10]: 95 to 100%; pest or weed control at 35 g/ha [2, 11]: 30 to 44%; pest or weed control at 70 g/ha [2, 11]: 60 to 74%; pest or weed control at 140 g/ha [2, 11]: 85 to 94%; pest or weed control at 35 g/ha [2, 12]: 60 to 74%; pest or weed control at 70 g/ha [2, 12]: 75 to 84%; pest or weed control at 140 g/ha [2, 12]: 85 to 94%; pest or weed control at 35 g/ha [2, 13]: 30 to 44%; pest or weed control at 70 g/ha [2, 13]: 75 to 84%; pest or weed control at 140 g/ha [2, 13]: 95 to 100%; pest or weed control at 35 g/ha [2, 14]: 60 to 74%; pest or weed control at 70 g/ha [2, 14]: 75 to 84%; pest or weed control at 140 g/ha [2, 14]: 85 to 94% |
| COC(=O)c1nc(-c2ccc(Cl)c3occc23)nc(N)c1Cl [Compound 2.20] | 0 to 29 | 0 to 29 | 0 to 29 | 0 to 29 | 0 to 29 | 0 to 29 | 0 to 29 | 30 to 44 | 60 to 74 | 0 to 29 | 0 to 29 | 0 to 29 | 0 to 29 | 0 to 29 | 0 to 29 | 45 to 59 | 60 to 74 | 60 to 74 | 95 to 100 | 95 to 100 | pest or weed control at 140 g/ha [2, 10]: 95 to 100%; pest or weed control at 35 g/ha [2, 11]: 0 to 29%; pest or weed control at 70 g/ha [2, 11]: 0 to 29%; pest or weed control at 140 g/ha [2, 11]: 30 to 44%; pest or weed control at 35 g/ha [2, 12]: 85 to 94%; pest or weed control at 70 g/ha [2, 12]: 95 to 100%; pest or weed control at 140 g/ha [2, 12]: 95 to 100%; pest or weed control at 35 g/ha [2, 13]: 0 to 29%; pest or weed control at 70 g/ha [2, 13]: 0 to 29%; pest or weed control at 140 g/ha [2, 13]: 0 to 29%; pest or weed control at 35 g/ha [2, 14]: 85 to 94%; pest or weed control at 70 g/ha [2, 14]: 95 to 100%; pest or weed control at 140 g/ha [2, 14]: 95 to 100% |
